Results from ChEMBL document CHEMBL6109035, “Anticonvulsant effects of new coumarin-2,3-dimethylbutadiene Diels-Alder cycloadducts in the pentylenetetrazole-induced clonic seizures in mice” (Bioorg Med Chem Lett, 2025).

Experiments:
Mus musculus [1] = assay: Antiseizure activity in PTZ-induced male CD-1 mouse clonic seizure model assessed as improvement in locomotor activity by measuring fold change at 13 mg/kg, ip pretreated with compound followed by PTZ-induction; assay type: functional
[2] = Toxicity in male CD-1 mouse assessed as stimulation of appetite at 12 to 13 mg/kg, ip; assay type: organism-based; conditions: in vivo, dose 12-13 mg/kg
Mus musculus [3] = assay: Antiseizure activity in PTZ-induced male CD-1 mouse clonic seizure model assessed as increase in latency time by measuring fold change at 13 mg/kg, ip pretreated with compound followed by PTZ-induction; assay type: functional
Mus musculus [4] = assay: Antiseizure activity in PTZ-induced male CD-1 mouse clonic seizure model assessed as improvement in locomotor activity by measuring total events at 13 mg/kg, ip pretreated with compound followed by PTZ-induction by open field test; assay type: functional
[5] = Toxicity in male CD-1 mouse assessed as sedation at 12 to 13 mg/kg, ip; assay type: organism-based; conditions: in vivo, dose 12-13 mg/kg
Mus musculus [6] = assay: Antiseizure activity in PTZ-induced male CD-1 mouse clonic seizure model assessed as increase in latency time at 13 mg/kg, ip pretreated with compound followed by PTZ-induction; assay type: functional
[7] = Toxicity in male CD-1 mouse assessed as piloerection at 12 to 13 mg/kg, ip; assay type: organism-based; conditions: in vivo, dose 12-13 mg/kg
Mus musculus [8] = assay: Antiseizure activity in PTZ-induced male CD-1 mouse clonic seizure model assessed as increase in latency time at 12 mg/kg, ip pretreated with compound followed by PTZ-induction; assay type: functional
Mus musculus [9] = assay: Antiseizure activity in PTZ-induced male CD-1 mouse clonic seizure model assessed as improvement in locomotor activity by measuring fold change at 12 mg/kg, ip pretreated with compound followed by PTZ-induction; assay type: functional
Mus musculus [10] = assay: Antiseizure activity in PTZ-induced male CD-1 mouse clonic seizure model assessed as increase in latency time by measuring fold change at 12 mg/kg, ip pretreated with compound followed by PTZ-induction; assay type: functional
Mus musculus [11] = assay: Antiseizure activity in PTZ-induced male CD-1 mouse clonic seizure model assessed as improvement in locomotor activity by measuring total events at 12 mg/kg, ip pretreated with compound followed by PTZ-induction by open field test; assay type: functional
Mus musculus [12] = assay: Antiseizure activity in PTZ-induced male CD-1 mouse clonic seizure model assessed as improvement in locomotor activity by measuring total events at 15 mg/kg, ip pretreated with compound followed by PTZ-induction by open field test; assay type: functional
Mus musculus [13] = assay: Antiseizure activity in PTZ-induced male CD-1 mouse clonic seizure model assessed as increase in latency time by measuring fold change at 15 mg/kg, ip pretreated with compound followed by PTZ-induction; assay type: functional
Mus musculus [14] = assay: Antiseizure activity in PTZ-induced male CD-1 mouse clonic seizure model assessed as increase in latency time at 15 mg/kg, ip pretreated with compound followed by PTZ-induction; assay type: functional
Mus musculus [15] = assay: Antiseizure activity in PTZ-induced male CD-1 mouse clonic seizure model assessed as improvement in locomotor activity by measuring fold change at 15 mg/kg, ip pretreated with compound followed by PTZ-induction by open field test; assay type: functional

SMILES | fold change (FC) (Mus musculus [1]) | Activity [2] | fold change (FC) (Mus musculus [3]) | Activity (Mus musculus [4]) | Activity [5] | Time (Mus musculus [6]) [s] | Activity [7] | Time (Mus musculus [8]) [s] | fold change (FC) (Mus musculus [9]) | fold change (FC) (Mus musculus [10]) | Activity (Mus musculus [11]) | Activity (Mus musculus [12]) | fold change (FC) (Mus musculus [13]) | Time (Mus musculus [14]) [s] | fold change (FC) (Mus musculus [15])
CC1=C(C)C[C@]2(C(=O)c3ccc(Cl)cc3)C(=O)Oc3ccccc3[C@@H]2C1 | 2.4 | Toxic | ~4 | 2790 | Toxic | 266 | Toxic |  |  |  |  |  |  |  | 
CC1=C(C)C[C@]2(C(=O)c3ccccc3)C(=O)Oc3ccccc3[C@@H]2C1 |  | Toxic |  |  | Toxic |  | Toxic | 264 | 2.4 | ~4 | 2747 |  |  |  | 
CC1=C(C)C[C@]2(C(=O)c3ccc(C)cc3)C(=O)Oc3ccccc3[C@@H]2C1 |  | Toxic |  |  | Toxic |  | Toxic | 269 | 2.4 | ~4 | 2876 |  |  |  | 
Cc1c(C(=O)c2cccc3ccccc23)c2cccc3c2n1C(CN1CCOCC1)CO3 (stereo not given) |  |  |  |  |  |  |  |  |  |  |  | 3079 | ~4 | 279 | 3
